{"source": "patent EP1840134B1", "about": "(NOVO NORDISK A/S, priority 1998, dated 2016)", "tested_on": "monoclonal antibody specific for the N-terminal region of GLP-1 (7-37)", "experiment": "Cross reactivity of the RIA antibody used to determine plasma concentrations", "format": "binding", "settings": "RIA at 4°C", "procedure": "The entire procedure was carried out at 4°C.\nThe assay was carried out as follows: 100 µl plasma was mixed with 271 µl 96% ethanol, mixed using a vortex mixer and centrifuged at 2600*g for 30 min. The supernatant was decanted into Minisorp tubes and evaporated completely (Savant Speedvac AS290). The evaporation residue was reconstituted in the assay buffer consisting of 80 mM NaH2PO4/Na2HPO4, 0.1 % HSA (Orpha 20/21, Behring), 10 mM EDTA, 0.6 mM thiomersal (Sigma), pH 7.5. Samples were reconstituted in volumes suitable for their expected concentrations, and were allowed to reconstitute for 30 min. To 300 µl sample, 100 µl antibody solution in dilution buffer containing 40 mM NaH2PO4/Na2HPO4, 0.1 % HSA, 0.6 mM thiomersal, pH 7.5, was added. A non-specific sample was prepared by mixing 300 µl buffer with 100 µl dilution buffer. Individual standards were prepared from freeze dried stocks, dissolved in 300 µl assay buffer. All samples were pre-incubated in Minisorp tubes with antibody as described above for 72 h. […] Immediately after the centrifugation, the supernatant was decanted and counted in a γ-counter. The concentration in the samples was calculated from individual standard curves. Plasma concentrations were found, calculated as % of the maximum concentration for the individual compounds (n=2).", "data": [{"substance": "GLP-1 (1-37) (HDEFERHAEGTFTSDVSSYLEGQAAKEFIAWLVKGRG; Glucagon-like peptide 1; UniProt P01275 92-128, looked up, fragment)", "values": [{"measurement": "cross reactivities", "value": "less than 1%"}]}]}
